Test results from PMC11993615, “Design, synthesis and optimization of TarO inhibitors as multifunctional antibiotics against Methicillin-resistant Staphylococcus aureus” (npj Antimicrobials and Resistance, 2025).
Converted amounts (≈) assume the structure as drawn.

How the values were obtained:
TarO = TarO (Staphylococcus aureus, UniProt Q2G060); assay type: cell-based; conditions: for IC50: relative inhibition rate against the wild-type strain, OD600 at 20 h, n.a. = IC50 cannot be calculated within the test range
[1] = Solubility of compounds in water (HPLC); assay type: physicochemical; conditions: pure water
Protocol: Weigh the sample in a 10 mL volumetric flask, dissolve in methanol up to the mark to obtain a reference solution of known concentration. Inject 5 μL into the HPLC, detect peak area at 254 nm wavelength. Prepare supersaturated aqueous solution of the sample, filter and inject 5 μL into the HPLC, detect peak area at 254 nm wavelength. The solubility of the compound in water […] is calculated according to the following formula: CS = CA × AB/AA (CA represents the concentration of the reference solution, AA represents the peak area of the reference solution, and AB represents the saturated peak area of the sample).

[2] = Cytotoxicity assay (Sulforhodamine B); assay type: cell-based; conditions: human
Protocol: The cytotoxicity was detected by Sulforhodamine B method. The human pancreatic cancer cell line Capan-1, human colon cancer cell line HCT-116 and human lung adenocarcinoma cell line NCI-H1373 were purchased from American Type Culture Collection (ATCC; Manassas, VA) and inoculated into 96-well plates in triplicate. The cells were treated with different concentrations of compounds in humidified incubator containing 5% CO2 for 72 h when they reached 70%-80% confluence. Vincristine was added as a positive control. Then, SRB staining agent was added and microplate analyzer was used to read the absorbance at 450 nm wavelength. The cytotoxicity of each compound is expressed as the concentration of the compound that reduces cell viability to 50% (IC50). The optical density (OD) at a wavelength of 450 nm was measured using an SpectraMax 190 Microplate Reader (Molecular Devices; USA). The IC50 value was calculated by the Logit method using Graphpad Prism 9.1.

USA300 LAC [3] = experiment: Checkerboard MIC assay with oxacillin; assay type: cell-based, Staphylococcus aureus; conditions: USA300 LAC/oxacillin; for Minimum sensitization concentration: test range 0.03–32 μg/mL
Protocol: (§1) In the checkerboard assay, concentrations of antibiotics, oxacillin and imipenem, and TarO inhibitors were simultaneously varied across columns and the rows, respectively. […] The range of each compound chosen for the checkerboard assay was according to their MIC value. […] For each clear well observed on the checkerboard MIC plate, the fractional inhibitory concentration index (FICI) was calculated as follows: FICI = FIC (inhibitor) + FIC (antibiotic) = MIC inhibitor in combination/ MIC inhibitor alone + MIC antibiotic in combination/MIC antibiotic alone. FIC = Fractional Inhibitory Concentration. A FICI value of < 0.5 indicates synergy, a value between 0.5 and 2 indicates additivity or indifference, and a value > 2 indicates antagonism.

USA400 MW2 [4] = experiment: Checkerboard MIC assay with oxacillin; assay type: cell-based, Staphylococcus aureus; conditions: for Sensitization fold / FICI / Maximum sensitization concentration / Minimum sensitization concentration: USA400 MW2/oxacillin; for Maximum sensitization concentration / Minimum sensitization concentration: test range 0.03–32 μg/mL; for MIC of β-lactam, combined: USA400 MW2
Protocol: as §1

HS663 [5] = experiment: Checkerboard MIC assay with imipenem; assay type: cell-based, Staphylococcus aureus; conditions: for FICI / Sensitization fold / Maximum sensitization concentration / Minimum sensitization concentration: HS663/imipenem; for Maximum sensitization concentration / Minimum sensitization concentration: test range 0.03–32 μg/mL; for MIC of β-lactam, combined: HS663
Protocol: as §1

[6] = test system: TntarO::vraXpro-lux (S.aureus JE2 tarO mutant); experiment: vraXpro-lux induction and growth of tarO mutant (target verification); assay type: cell-based, Staphylococcus aureus; conditions: different concentrations
Protocol: Second, the vraXpro-lux induction and growth inhibition experiment were conducted using a tarO mutant, as we assumed that a compound with other targets may still change the growth characteristic and the vraXpro-lux expression pattern of the mutant, whereas a TarO inhibitor would not, as its target is absent in the mutant.
Generally, JE2::vraXpro-lux and its isogenic ^TntarO::vraXpro-lux reporter strains were used for preliminary screening and cellular-based target verification. JE2::vraXpro-lux was obtained by transduction of the vraXpro-lux fusions from RN4220 strain to JE2, a plasmid-cured derivative of the community-associated MRSA strain USA300 LAC. ^TntarO::vraXpro-lux was further obtained by transposon insertion mutation of the tarO gene using a mariner-based transposon in JE2 reporter strain[41]. […] Then, 200 μL aliquot of the samples were distributed to a 96-well black-wall clear-bottom plate (Costar, Corning Incorporated), and 45 μL saxoline was added to each well to prevent the evaporation of the medium. vraXpro-lux expression level and the growth curve were measured using a Cytation 1 Multi-Mode Microplate Reader (Biotek) at different time points as indicated.

[7] = test system: S.aureus USA300 LAC biofilm; experiment: Static biofilm inhibition assay (crystal violet); assay type: cell-based, Staphylococcus aureus; conditions: USA300 LAC; for concentration (as low as) significantly reducing biofilm formation: 24 h static culture
[8] = Preliminary liver microsomal stability testing; assay type: in vitro ADME, Mouse; conditions: for Clint In Vitro / Comments (metabolic stability): Mouse liver microsomes; for half-life at 0.1 μM: pH 7.4, Mouse liver microsomes 0.33 mg/mL, 0.1 μM compound
Protocol: 6. Supplementary Ta b l e 3: Preliminary liver microsomal stability testing of Ta r O
Compounds Species T1/2 Clint In Vitro MF […]
a MF: metabolic bioavailability.
Microsomes in 0.1 M TRIS buffer pH 7.4 (final concentration 0.33 mg/mL), co- factor MgCl2 (final concentration 5 mM) and tested compound (final concentration 0.1 μM, co-solvent 0.01% DMSO and 0.005% Bovin serum albumin BSA) were incubated at 37°C for 10 min. The reaction was started by the addition of NADPH (final concentration 1 mM). Aliquots were sampled at 0, 5, 15, 30 and 60 min respectively and methanol (cold in wet ice) was added to terminate the reaction.
After centrifugation (4000rpm,5 min), samples were then analyzed by LC- MS/MS.

USA300 LAC [9] = experiment: MIC determination, broth microdilution; conditions: Staphylococcus aureus
USA400 MW2 [10] = experiment: MIC determination, broth microdilution; conditions: Staphylococcus aureus
HS663 [11] = experiment: MIC determination, broth microdilution
MRSA HS663 strain = experiment: Galleria mellonella larva infection assay; conditions: for survival time of infected larvae: HS663 1.5 × 10^6 CFU
Protocol: Galleria mellonella infection experiment was performed according to previous methods[24]. Generally, HS663 was grown overnight in TSB (Tryptone Soya Broth) at 37 °C with shaking at 250 rpm. Then cultures were diluted 1:100 into 10 ml fresh TSB, and were further grown for 3 h. The bacterial cells were harvested by centrifugation at 5700 g for 5 min, washed twice with sterilized PBS, and suspended with PBS. Galleria mellonella larvae (Tianjin HuiYuDe Biotechnological Co., Ltd.) about 300 mg was selected to infect. […] After infection for 1 h, the larvae were administrated with compounds or solvent only. Then the Galleria mellonella larvae was cultivated at 37 °C and survival rates were recorded every 12 h for 5 days to analyze the mortality data.

[12] = test system: S.aureus USA300 LAC wild-type; experiment: Antagonistic (chemical suppression) test of 18a against Targocil, checkerboard
[13] = test system: ΔtarO strain of USA300 LAC; experiment: Chemical suppression test, Targocil on tarO null mutant control; conditions: Targocil 2–64 μg/mL
[14] = at maximum sensitization concentration
[15] = at minimum sensitization concentration
[16] = oxacillin with TarO inhibitor at maximum sensitization concentration
[17] = oxacillin with TarO inhibitor at minimum sensitization concentration
[18] = imipenem with TarO inhibitor at maximum sensitization concentration
[19] = imipenem with TarO inhibitor at minimum sensitization concentration
[20] = Capan-1 cells (human pancreatic cancer cell line), Capan-1, 72 h
[21] = HCT-116 cells (human colon cancer cell line), HCT-116, 72 h
[22] = NCI-H1373 cells (human lung adenocarcinoma cell line), NCI-H1373, 72 h

| Compound | IC50 (TarO) [µM] | FICI (USA300 LAC [3]; [14]) | Sensitization fold (USA300 LAC [3]; [14]) | FICI (USA300 LAC [3]; [15]) | Sensitization fold (USA300 LAC [3]; [15]) | Minimum sensitization concentration (USA300 LAC [3]) [µg/mL] | Sensitization fold (USA400 MW2 [4]; [14]) | Sensitization fold (USA400 MW2 [4]; [15]) | Maximum sensitization concentration (USA400 MW2 [4]) [µg/mL] | Minimum sensitization concentration (USA400 MW2 [4]) [µg/mL] | MIC of β-lactam, combined (USA400 MW2 [4]; [16]) [µg/mL] | MIC of β-lactam, combined (USA400 MW2 [4]; [17]) [µg/mL] | FICI (HS663 [5]; [14]) | Sensitization fold (HS663 [5]; [14]) | FICI (HS663 [5]; [15]) | Sensitization fold (HS663 [5]; [15]) | Maximum sensitization concentration (HS663 [5]) [µg/mL] | Minimum sensitization concentration (HS663 [5]) [µg/mL] | MIC of β-lactam, combined (HS663 [5]; [18]) [µg/mL] | MIC of β-lactam, combined (HS663 [5]; [19]) [µg/mL] | further results |
| --- | --- | --- | --- | --- | --- | --- | --- | --- | --- | --- | --- | --- | --- | --- | --- | --- | --- | --- | --- | --- | --- |
| C[C@H]1[C@@H](c2cc(C(F)(F)F)cc(C(F)(F)F)c2)OC(=O)N1C(=O)CCn1ccc(=O)c2cccnc21 [Compound 18a] | 3.66 | <0.13 | 256 | <0.13 | 8 | 0.03 | 64 | 4 | 32 | 0.03 | 0.25 | 4 | <0.15 | 8 | <0.51 | 2 | 4 | 0.03 | 8 | 32 | solubility [1]: 20 µg/mL (≈ 39 µM); IC50 at 72 h ([2]; Capan-1, 72 h): > 20 µM; IC50 at 72 h ([2]; HCT-116, 72 h): > 20 µM; IC50 at 72 h ([2]; NCI-H1373, 72 h): > 20 µM; FICI (USA400 MW2 [4]; [15]): <0.26; vraXpro-lux expression pattern and growth characteristics of the tarO mutant [6]: neither Tarocin A nor 18a further changed the vraXpro-lux expression pattern as well as the growth characteristics of the mutant; concentration (as low as) significantly reducing biofilm formation [7]: 8 µg/mL; Clint In Vitro [8]: 3051 mL/min/gprot; Comments (metabolic stability) [8]: poor and did not achieve the desired result; half-life at 0.1 μM [8]: 0.69 min; MIC (USA300 LAC [9]): > 256 µg/mL; MIC (USA400 MW2 [10]): > 256 µg/mL; MIC (HS663 [11]; HS663, compound alone): exceeds 256 μg/mL; MIC (HS663 [11]; Staphylococcus aureus): > 256 µg/mL; extension of survival time (MRSA HS663 strain; 16 mg/kg, higher infection dose, HS663 2.0 × 10^6 CFU): even higher than that of 20 mg/kg of imipenem treating group; survival rate of infected larvae, combination (MRSA HS663 strain; 18a 16 mg/kg in combination with 20 mg/kg imipenem, compared with imipenem alone, 2.0 × 10^6 CFU): a further improvement in the survival rate; survival time of infected larvae (MRSA HS663 strain; single administration 8 mg/kg): significantly extended the survival time; survival time of infected larvae (MRSA HS663 strain; single administration 16 mg/kg): significantly extended the survival time; concentration (as low as) alleviating the growth inhibition of Targocil ([12]; WT strain, 18a range 0.25–128 μg/mL): 0.25 µg/mL |
| COc1cc(C(F)(F)F)cc([C@H]2OC(=O)N(C(=O)CCn3ccc(=O)c4cccnc43)[C@H]2C)n1 [Compound 18b] | 12.3 | <0.19 | 16 | <0.26 | 4 | 0.25 | 32 | 2 | 32 | 0.06 | 0.5 | 8 | <0.08 | 16 | <0.51 | 2 | 2 | 0.12 | 4 | 32 | IC50 at 72 h [2, 20]: > 20 µM; IC50 at 72 h [2, 21]: > 20 µM; IC50 at 72 h [2, 22]: > 20 µM; FICI (USA400 MW2 [4]; [14]): <0.16; concentration (as low as) significantly reducing biofilm formation [7]: 8 µg/mL; Clint In Vitro [8]: 1267 mL/min/gprot; Comments (metabolic stability) [8]: poor; half-life at 0.1 μM [8]: 1.66 min; MIC (USA300 LAC [9]): > 256 µg/mL; MIC (USA400 MW2 [10]): > 256 µg/mL; MIC (HS663 [11]; Staphylococcus aureus): > 256 µg/mL |
| CCN(CC)c1nc2c(S(=O)(=O)c3ccc(Cl)cc3)nnn2c2cc(OC)c(OC)cc12 [Targocil, reference compound] |  |  |  |  |  |  |  |  |  |  |  |  |  |  |  |  |  |  |  |  | lethal effect on the tarO mutant [13]: did not exhibit a lethal effect; MIC ([12]; Targocil alone, WT S.aureus): about 8 μg/mL |
| C[C@H]1[C@@H](c2cc(C(F)(F)F)cc(C(F)(F)F)c2)OC(=O)N1C(=O)Cc1cccc2ccccc12 [Tarocin A, reference compound] | 9.7 | <0.26 | 4 | <0.51 | 2 | 0.06 | 16 | 2 | 0.5 | 0.06 | 1 | 8 | <0.14 | 8 | <0.51 | 2 | 2 | 0.25 | 8 | 32 | induction of vraXpro-lux expression (TarO; MRSA USA300 LAC strain, exponential growth phase): concentration-dependent manner; bacterial growth density (OD600) (TarO; post-exponential growth phase): effectively reduced the bacterial growth density; water solubility [1]: almost insoluble in pure water; IC50 at 72 h [2, 20]: > 20 µM; IC50 at 72 h [2, 21]: > 20 µM; IC50 at 72 h [2, 22]: > 20 µM; FICI (USA400 MW2 [4]; [14]): <0.07; FICI (USA400 MW2 [4]; [15]): <0.51; vraXpro-lux expression pattern and growth characteristics of the tarO mutant [6]: neither Tarocin A nor 18a further changed the vraXpro-lux expression pattern as well as the growth characteristics of the mutant; static biofilm formation ([7]; tested concentration range 0.03 to 32 μg/mL): did not reduce static biofilm formation; MIC (USA300 LAC [9]): > 256 µg/mL; MIC (USA400 MW2 [10]): > 256 µg/mL; MIC (HS663 [11]; Staphylococcus aureus): > 256 µg/mL |
